{"source": "ChEMBL document CHEMBL4804284", "parameters_in_all_cases": "scale not given: the % may be the effect or the level left", "key": {"[1]": {"target": "Serine/threonine-protein kinase LATS2 (Homo sapiens) (UniProt Q9NRM7)", "experiment": "Inhibition of DNA-tagged human LATS2 assessed as percent of control at 50000 nM by qPCR analysis relative to control"}, "[2]": {"target": "Cyclin-dependent kinase 3 (Homo sapiens) (UniProt Q00526)", "experiment": "Inhibition of DNA-tagged human CDK3 assessed as percent of control at 50000 nM by qPCR analysis relative to control"}, "[3]": {"target": "Ribosomal protein S6 kinase beta-1 (Homo sapiens) (UniProt P23443)", "experiment": "Inhibition of DNA-tagged human S6K1 assessed as percent of control at 50000 nM by qPCR analysis relative to control"}, "[4]": {"target": "ALK tyrosine kinase receptor (Homo sapiens) (UniProt Q9UM73)", "experiment": "Inhibition of DNA-tagged human ALK assessed as percent of control at 50000 nM by qPCR analysis relative to control"}, "[5]": {"target": "Serine/threonine-protein kinase Nek7 (Homo sapiens) (UniProt Q8TDX7)", "experiment": "Inhibition of DNA-tagged human NEK7 assessed as percent of control at 50000 nM by qPCR analysis relative to control"}, "[6]": {"target": "Serine/threonine-protein kinase PRP4 homolog (Homo sapiens) (UniProt Q13523)", "experiment": "Inhibition of DNA-tagged human PRP4 assessed as percent of control at 50000 nM by qPCR analysis relative to control"}, "[7]": {"target": "Serine/threonine-protein kinase 4 (Homo sapiens) (UniProt Q13043)", "experiment": "Inhibition of DNA-tagged human MST1 assessed as percent of control at 50000 nM by qPCR analysis relative to control"}, "[8]": {"target": "Homeodomain-interacting protein kinase 3 (Homo sapiens) (UniProt Q9H422)", "sequence (Q9H422 whole entry, looked up)": "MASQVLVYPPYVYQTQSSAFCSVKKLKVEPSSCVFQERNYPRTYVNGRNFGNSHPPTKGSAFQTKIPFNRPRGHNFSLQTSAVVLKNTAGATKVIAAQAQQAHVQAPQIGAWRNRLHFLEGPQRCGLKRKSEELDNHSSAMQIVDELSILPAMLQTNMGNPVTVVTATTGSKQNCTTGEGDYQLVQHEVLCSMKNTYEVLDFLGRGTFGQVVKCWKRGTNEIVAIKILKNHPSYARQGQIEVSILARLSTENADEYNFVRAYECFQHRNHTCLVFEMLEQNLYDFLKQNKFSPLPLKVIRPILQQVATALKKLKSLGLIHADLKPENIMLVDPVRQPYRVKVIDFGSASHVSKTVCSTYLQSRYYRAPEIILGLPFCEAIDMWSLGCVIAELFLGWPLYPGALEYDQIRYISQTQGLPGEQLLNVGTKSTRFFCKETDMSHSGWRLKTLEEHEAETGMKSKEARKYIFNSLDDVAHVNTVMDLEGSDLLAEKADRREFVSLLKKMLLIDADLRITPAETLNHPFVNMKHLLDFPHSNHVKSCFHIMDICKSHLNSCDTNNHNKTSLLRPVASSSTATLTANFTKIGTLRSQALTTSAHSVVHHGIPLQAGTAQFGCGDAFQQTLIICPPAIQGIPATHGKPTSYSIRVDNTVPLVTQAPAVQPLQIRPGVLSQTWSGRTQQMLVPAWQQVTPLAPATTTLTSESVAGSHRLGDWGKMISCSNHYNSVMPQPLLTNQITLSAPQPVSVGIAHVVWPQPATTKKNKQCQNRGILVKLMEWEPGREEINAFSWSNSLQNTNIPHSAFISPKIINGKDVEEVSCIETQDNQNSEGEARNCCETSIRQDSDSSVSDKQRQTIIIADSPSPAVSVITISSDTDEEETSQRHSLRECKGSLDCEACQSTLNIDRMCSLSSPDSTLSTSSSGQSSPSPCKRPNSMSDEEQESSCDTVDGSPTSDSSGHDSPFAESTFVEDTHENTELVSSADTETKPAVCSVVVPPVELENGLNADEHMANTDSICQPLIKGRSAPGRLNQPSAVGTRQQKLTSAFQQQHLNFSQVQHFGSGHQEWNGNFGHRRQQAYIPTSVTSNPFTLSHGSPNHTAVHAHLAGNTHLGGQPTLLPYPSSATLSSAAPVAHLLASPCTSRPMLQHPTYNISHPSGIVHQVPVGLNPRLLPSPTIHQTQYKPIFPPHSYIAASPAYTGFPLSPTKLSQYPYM", "experiment": "Inhibition of DNA-tagged human HIPK3 assessed as percent of control at 50000 nM by qPCR analysis relative to control"}, "[9]": {"target": "Myosin light chain kinase, smooth muscle (Homo sapiens) (UniProt Q15746)", "experiment": "Inhibition of DNA-tagged human MYLK assessed as percent of control at 50000 nM by qPCR analysis relative to control"}, "[10]": {"target": "TRAF2 and NCK-interacting protein kinase (Homo sapiens) (UniProt Q9UKE5)", "sequence (Q9UKE5 whole entry, looked up)": "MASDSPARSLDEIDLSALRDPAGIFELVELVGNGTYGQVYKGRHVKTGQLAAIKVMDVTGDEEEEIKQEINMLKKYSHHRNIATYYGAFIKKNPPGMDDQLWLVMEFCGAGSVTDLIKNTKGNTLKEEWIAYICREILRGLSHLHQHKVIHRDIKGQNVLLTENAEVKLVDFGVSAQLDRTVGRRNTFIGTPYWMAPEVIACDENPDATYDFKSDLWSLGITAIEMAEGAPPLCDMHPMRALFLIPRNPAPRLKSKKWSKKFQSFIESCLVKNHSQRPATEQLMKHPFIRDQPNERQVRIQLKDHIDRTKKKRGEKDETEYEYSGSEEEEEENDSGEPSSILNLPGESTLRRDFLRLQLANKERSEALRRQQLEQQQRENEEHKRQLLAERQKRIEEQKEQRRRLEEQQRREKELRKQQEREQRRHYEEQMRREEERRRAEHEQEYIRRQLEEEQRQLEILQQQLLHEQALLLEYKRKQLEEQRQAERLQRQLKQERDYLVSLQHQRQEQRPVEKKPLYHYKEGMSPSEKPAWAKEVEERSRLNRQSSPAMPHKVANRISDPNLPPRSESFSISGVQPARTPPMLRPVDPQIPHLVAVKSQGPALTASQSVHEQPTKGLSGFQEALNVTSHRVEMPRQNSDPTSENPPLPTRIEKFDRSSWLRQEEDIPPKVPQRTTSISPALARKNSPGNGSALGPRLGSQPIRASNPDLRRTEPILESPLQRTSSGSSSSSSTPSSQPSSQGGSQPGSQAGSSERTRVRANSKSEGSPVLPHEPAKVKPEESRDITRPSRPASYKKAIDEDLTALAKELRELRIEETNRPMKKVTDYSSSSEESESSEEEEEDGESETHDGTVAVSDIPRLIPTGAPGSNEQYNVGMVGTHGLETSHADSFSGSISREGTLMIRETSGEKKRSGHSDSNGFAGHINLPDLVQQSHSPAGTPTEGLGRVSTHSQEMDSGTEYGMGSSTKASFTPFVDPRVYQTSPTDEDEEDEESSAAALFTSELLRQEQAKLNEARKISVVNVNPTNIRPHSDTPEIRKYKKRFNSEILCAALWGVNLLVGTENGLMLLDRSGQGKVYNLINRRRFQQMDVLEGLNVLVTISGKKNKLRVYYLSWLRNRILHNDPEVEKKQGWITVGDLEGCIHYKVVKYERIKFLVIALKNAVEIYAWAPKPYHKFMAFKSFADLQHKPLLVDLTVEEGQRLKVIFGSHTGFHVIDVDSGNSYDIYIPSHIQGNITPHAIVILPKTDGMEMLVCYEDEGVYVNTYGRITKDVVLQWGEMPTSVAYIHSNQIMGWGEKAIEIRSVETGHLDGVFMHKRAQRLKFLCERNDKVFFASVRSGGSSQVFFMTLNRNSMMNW", "experiment": "Inhibition of DNA-tagged human TNIK assessed as percent of control at 50000 nM by qPCR analysis relative to control"}, "[11]": {"target": "Serine/threonine-protein kinase Nek9 (Homo sapiens) (UniProt Q8TD19)", "experiment": "Inhibition of DNA-tagged human NEK9 assessed as percent of control at 50000 nM by qPCR analysis relative to control"}, "[12]": {"target": "Tyrosine-protein kinase TXK (Homo sapiens) (UniProt P42681)", "sequence (P42681 whole entry)": "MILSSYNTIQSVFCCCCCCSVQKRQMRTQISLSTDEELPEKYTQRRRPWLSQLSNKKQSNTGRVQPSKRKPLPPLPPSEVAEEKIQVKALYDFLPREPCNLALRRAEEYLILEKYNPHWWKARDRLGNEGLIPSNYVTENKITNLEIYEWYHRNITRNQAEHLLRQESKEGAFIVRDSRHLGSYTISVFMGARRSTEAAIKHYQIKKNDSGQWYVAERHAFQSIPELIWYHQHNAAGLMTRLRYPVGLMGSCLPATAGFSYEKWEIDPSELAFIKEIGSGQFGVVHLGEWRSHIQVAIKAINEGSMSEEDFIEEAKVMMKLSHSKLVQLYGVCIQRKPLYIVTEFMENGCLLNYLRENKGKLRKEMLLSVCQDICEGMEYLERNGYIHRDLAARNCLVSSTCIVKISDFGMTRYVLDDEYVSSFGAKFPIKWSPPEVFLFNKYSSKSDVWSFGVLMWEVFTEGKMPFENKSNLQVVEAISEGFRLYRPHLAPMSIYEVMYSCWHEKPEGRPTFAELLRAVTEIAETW", "experiment": "Inhibition of DNA-tagged human TXK assessed as percent of control at 50000 nM by qPCR analysis relative to control"}, "[13]": {"target": "Glycogen synthase kinase-3 beta (Homo sapiens) (UniProt P49841)", "experiment": "Inhibition of DNA-tagged human GSK3B assessed as percent of control at 50000 nM by qPCR analysis relative to control"}, "[14]": {"target": "Mitogen-activated protein kinase 3 (Homo sapiens) (UniProt P27361)", "experiment": "Inhibition of DNA-tagged human ERK1 assessed as percent of control at 50000 nM by qPCR analysis relative to control"}, "[15]": {"target": "Death-associated protein kinase 3 (Homo sapiens) (UniProt O43293)", "sequence (O43293 whole entry, looked up)": "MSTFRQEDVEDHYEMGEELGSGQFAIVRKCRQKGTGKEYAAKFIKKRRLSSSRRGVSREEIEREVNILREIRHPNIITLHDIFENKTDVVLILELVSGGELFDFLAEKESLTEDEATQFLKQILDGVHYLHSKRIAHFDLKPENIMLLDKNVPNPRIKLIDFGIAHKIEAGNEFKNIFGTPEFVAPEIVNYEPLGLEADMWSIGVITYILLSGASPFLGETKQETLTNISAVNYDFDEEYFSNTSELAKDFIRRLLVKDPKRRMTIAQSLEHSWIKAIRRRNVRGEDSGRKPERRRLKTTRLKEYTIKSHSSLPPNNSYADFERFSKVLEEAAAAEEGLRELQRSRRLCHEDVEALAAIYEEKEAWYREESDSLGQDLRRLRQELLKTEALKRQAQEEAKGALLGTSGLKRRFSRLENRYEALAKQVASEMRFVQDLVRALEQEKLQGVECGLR", "experiment": "Inhibition of DNA-tagged human DAPK3 assessed as percent of control at 50000 nM by qPCR analysis relative to control"}, "[16]": {"target": "Serine/threonine-protein kinase 26 (Homo sapiens) (UniProt Q9P289)", "sequence (Q9P289 2-416 limits assumed)": "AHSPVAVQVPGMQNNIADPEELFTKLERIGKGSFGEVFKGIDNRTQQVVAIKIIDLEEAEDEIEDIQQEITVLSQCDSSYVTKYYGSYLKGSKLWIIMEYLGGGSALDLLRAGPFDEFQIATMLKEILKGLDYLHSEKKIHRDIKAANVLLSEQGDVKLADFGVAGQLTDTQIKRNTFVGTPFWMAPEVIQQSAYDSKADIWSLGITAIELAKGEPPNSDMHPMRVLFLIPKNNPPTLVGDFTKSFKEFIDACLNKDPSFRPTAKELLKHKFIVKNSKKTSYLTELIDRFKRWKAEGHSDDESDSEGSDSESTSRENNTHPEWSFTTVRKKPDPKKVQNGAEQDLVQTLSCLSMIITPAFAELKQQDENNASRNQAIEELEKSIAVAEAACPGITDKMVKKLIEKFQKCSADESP", "experiment": "Inhibition of DNA-tagged human MST4 assessed as percent of control at 50000 nM by qPCR analysis relative to control"}, "[17]": {"target": "Dual specificity mitogen-activated protein kinase kinase 4 (Homo sapiens) (UniProt P45985)", "sequence (P45985 whole entry)": "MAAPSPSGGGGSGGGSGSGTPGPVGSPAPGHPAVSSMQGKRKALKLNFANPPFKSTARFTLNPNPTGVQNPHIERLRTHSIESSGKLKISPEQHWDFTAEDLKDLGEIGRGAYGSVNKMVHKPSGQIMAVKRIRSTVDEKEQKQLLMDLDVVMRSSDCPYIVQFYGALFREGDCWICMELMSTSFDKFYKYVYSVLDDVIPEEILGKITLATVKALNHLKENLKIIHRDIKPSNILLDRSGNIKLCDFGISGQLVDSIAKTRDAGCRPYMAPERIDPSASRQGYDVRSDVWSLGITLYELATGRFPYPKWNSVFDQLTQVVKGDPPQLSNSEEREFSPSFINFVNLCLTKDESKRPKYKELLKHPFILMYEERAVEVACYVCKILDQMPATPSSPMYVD", "experiment": "Inhibition of DNA-tagged human MEK4 assessed as percent of control at 50000 nM by qPCR analysis relative to control"}, "[18]": {"target": "Tyrosine-protein kinase SYK (Homo sapiens) (UniProt P43405)", "experiment": "Inhibition of DNA-tagged human SYK assessed as percent of control at 50000 nM by qPCR analysis relative to control"}, "[19]": {"system": "Receptor-type tyrosine-protein kinase FLT3 (Homo sapiens), P36888 [UNDEFINED MUTATION]", "experiment": "Inhibition of DNA-tagged human FLT3 ITD mutant assessed as percent of control at 50000 nM by qPCR analysis relative to control"}, "[20]": {"target": "Serine/threonine-protein kinase Nek4 (Homo sapiens) (UniProt P51957)", "experiment": "Inhibition of DNA-tagged human NEK4 assessed as percent of control at 50000 nM by qPCR analysis relative to control"}, "[21]": {"target": "MAP kinase-activated protein kinase 5 (Homo sapiens) (UniProt Q8IW41)", "experiment": "Inhibition of DNA-tagged human MAPKAPK5 assessed as percent of control at 50000 nM by qPCR analysis relative to control"}, "[22]": {"target": "Platelet-derived growth factor receptor beta (Homo sapiens) (UniProt P09619)", "experiment": "Inhibition of DNA-tagged human PDGFRB assessed as percent of control at 50000 nM by qPCR analysis relative to control"}, "[23]": {"target": "Serine/threonine-protein kinase Sgk3 (Homo sapiens) (UniProt Q96BR1)", "experiment": "Inhibition of DNA-tagged human SGK3 assessed as percent of control at 50000 nM by qPCR analysis relative to control"}, "[24]": {"target": "Interleukin-1 receptor-associated kinase 4 (Homo sapiens) (UniProt Q9NWZ3)", "experiment": "Inhibition of DNA-tagged human IRAK4 assessed as percent of control at 50000 nM by qPCR analysis relative to control"}, "[25]": {"target": "Mitogen-activated protein kinase kinase kinase 1 (Homo sapiens) (UniProt Q13233)", "experiment": "Inhibition of DNA-tagged human MAP3K1 assessed as percent of control at 50000 nM by qPCR analysis relative to control"}, "[26]": {"target": "Activin receptor type-1-like (Homo sapiens) (UniProt P37023)", "sequence (P37023 whole entry)": "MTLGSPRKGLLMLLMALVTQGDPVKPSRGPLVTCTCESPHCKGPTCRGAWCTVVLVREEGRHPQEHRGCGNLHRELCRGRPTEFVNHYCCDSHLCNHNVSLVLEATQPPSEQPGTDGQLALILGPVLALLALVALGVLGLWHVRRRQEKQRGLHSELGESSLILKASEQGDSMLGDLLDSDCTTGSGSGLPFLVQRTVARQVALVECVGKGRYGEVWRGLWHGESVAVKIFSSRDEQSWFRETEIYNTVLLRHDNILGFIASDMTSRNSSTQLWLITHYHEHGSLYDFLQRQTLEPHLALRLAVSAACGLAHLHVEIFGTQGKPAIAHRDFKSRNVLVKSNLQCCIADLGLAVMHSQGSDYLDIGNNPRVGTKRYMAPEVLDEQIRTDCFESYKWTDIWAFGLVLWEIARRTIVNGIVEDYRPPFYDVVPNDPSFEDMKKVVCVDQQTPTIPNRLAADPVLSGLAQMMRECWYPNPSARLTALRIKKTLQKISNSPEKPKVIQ", "experiment": "Inhibition of DNA-tagged human ACVRL1 assessed as percent of control at 50000 nM by qPCR analysis relative to control"}, "[27]": {"target": "Cyclin-dependent kinase 2 (Homo sapiens) (UniProt P24941)", "experiment": "Inhibition of DNA-tagged human CDK2 assessed as percent of control at 50000 nM by qPCR analysis relative to control"}, "[28]": {"system": "Receptor-type tyrosine-protein kinase FLT3 (Homo sapiens), P36888 [N841I]", "experiment": "Inhibition of DNA-tagged human FLT3 N841I mutant assessed as percent of control at 50000 nM by qPCR analysis relative to control"}, "[29]": {"target": "Tyrosine-protein kinase Blk (Homo sapiens) (UniProt P51451)", "experiment": "Inhibition of DNA-tagged human BLK assessed as percent of control at 50000 nM by qPCR analysis relative to control"}, "[30]": {"target": "Serine/threonine-protein kinase 35 (Homo sapiens) (UniProt Q8TDR2)", "experiment": "Inhibition of DNA-tagged human STK35 assessed as percent of control at 50000 nM by qPCR analysis relative to control"}}}
{"smiles": "CN1C(=O)/C(=C2/C(=O)Nc3ccccc32)c2ccccc21", "values": [{"measurement": "Activity", "setting": "[1]", "value": 90, "unit": "%"}, {"measurement": "Activity", "setting": "[2]", "value": 78, "unit": "%"}, {"measurement": "Activity", "setting": "[3]", "value": 85, "unit": "%"}, {"measurement": "Activity", "setting": "[4]", "value": 97, "unit": "%"}, {"measurement": "Activity", "setting": "[5]", "value": 59, "unit": "%"}, {"measurement": "Activity", "setting": "[6]", "value": 89, "unit": "%"}, {"measurement": "Activity", "setting": "[7]", "value": 95, "unit": "%"}, {"measurement": "Activity", "setting": "[8]", "value": 80, "unit": "%"}, {"measurement": "Activity", "setting": "[9]", "value": 82, "unit": "%"}, {"measurement": "Activity", "setting": "[10]", "value": 100, "unit": "%"}, {"measurement": "Activity", "setting": "[11]", "value": 33, "unit": "%"}, {"measurement": "Activity", "setting": "[12]", "value": 100, "unit": "%"}, {"measurement": "Activity", "setting": "[13]", "value": 90, "unit": "%"}, {"measurement": "Activity", "setting": "[14]", "value": 100, "unit": "%"}, {"measurement": "Activity", "setting": "[15]", "value": 93, "unit": "%"}, {"measurement": "Activity", "setting": "[16]", "value": 100, "unit": "%"}, {"measurement": "Activity", "setting": "[17]", "value": 100, "unit": "%"}, {"measurement": "Activity", "setting": "[18]", "value": 85, "unit": "%"}, {"measurement": "Activity", "setting": "[19]", "value": 76, "unit": "%"}, {"measurement": "Activity", "setting": "[20]", "value": 86, "unit": "%"}, {"measurement": "Activity", "setting": "[21]", "value": 100, "unit": "%"}, {"measurement": "Activity", "setting": "[22]", "value": 100, "unit": "%"}, {"measurement": "Activity", "setting": "[23]", "value": 68, "unit": "%"}, {"measurement": "Activity", "setting": "[24]", "value": 75, "unit": "%"}, {"measurement": "Activity", "setting": "[25]", "value": 83, "unit": "%"}, {"measurement": "Activity", "setting": "[26]", "value": 100, "unit": "%"}, {"measurement": "Activity", "setting": "[27]", "value": 100, "unit": "%"}, {"measurement": "Activity", "setting": "[28]", "value": 100, "unit": "%"}, {"measurement": "Activity", "setting": "[29]", "value": 100, "unit": "%"}, {"measurement": "Activity", "setting": "[30]", "value": 89, "unit": "%"}]}
